molecular target: human Kv1.5 potassium channel alpha subunit (Homo sapiens, UniProt P22460); assay: High throughput Kv1.5 planar patch clamp assay (Kv1.5 HT-clamp, IonWorks HT); format: cell-based; design: Kv1.5 HT-clamp % inhibition: dose or concentration left out as unconfirmed; conditions: not given
From the text: The high throughput Kv1.5 planar patch clamp assay is a systematic primary screen. It confirms activity and provides a functional measure of the potency of agents that specifically affect Kv1.5 potassium channels. Kiss et al. (Assay and Drug Dev. Tech., 1(1-2):127-135, 2003) and Schroeder et al. (J. of Biomol. Screen., 8(1); 50-64, 2003) describe the use of this instrument for Kv1.5 as well as other voltage gated ion channels.
Chinese hamster ovary cells (CHO) stably expressing the human Kv1.5 potassium channel alpha subunit, cloned from human heart, are grown to 90-100% confluence in Ham's F12 medium supplemented with 10% FBS, 100 U/ml penicillin, 100 μg/ml streptomycin, 1000 μg/ml G-418 sulfate. Cells are subcultured by treatment with Versene, then suspended in phosphate-buffered saline (PBS) and centrifuged The cell pellet is re-suspended in PBS and the resulting suspension placed in the cell reservoir of the IonWorks™ HT instrument.
Electrophysiological recordings are performed with intracellular solution containing (mM): K-gluconate 100, KCl 40, MgCl2 3.2, EGTA 3, N-2-hydroxylethylpiperazine-N^1-2-ethanesulphonic acid (HEPES) 5, adjusted to pH 7.3. Amphotericin (Sigma) is prepared as 30 mg/ml stock solution and diluted to a final working concentration of 0.1 mg/ml in internal buffer solution. The external solution is Dulbecco's PBS (Invitrogen) and contains (mM): CaCl2 0.90, KCl 2.67, K3PO4 1.47, MgCl2 0.50, NaCl 138, Na3PO4 8.10 and has a pH of 7.4. All compounds are prepared as 10 mM stock solutions in DMSO. Compounds are diluted into external buffer, then transferred from the drug plate to the Patchplate during the experiment (final DMSO concentration <0.66% vol.).
Kv1.5 ionic currents are recorded at room temperature. Membrane currents are amplified (RMS ˜10 pA) and sampled at 10 kHz. Leak subtraction was performed in all experiments by applying a 160 ms hyperpolarizing (10 mV) pre-pulses 200 ms before the test pulses to measure leak conductance. The patch clamp stimulus protocol is as follows: • 1. Patchplate wells are loaded with 3.5 μL of external buffer. • 2. Planar micropipette hole resistances (Rp) is determined by applying a 10 mV, 160 ms potential difference across each hole (Hole test). • 3. Cells are pipetted into the Patchplate and form high resistance seals with the 1-2 μm holes at the bottom of each Patchplate well. A seal test scan is performed to determine how many of the Patchplate wells have cells that have formed seals. • 4. In order to gain electrical access to the cells, intracellular solution containing amphotericin is circulated for 4 minutes on the bottom side of the Patchplate. • 5. Pre-compound addition test pulse is applied to each well on the Patchplate. Protocol: Cells are voltage clamped at a membrane holding potential of −80 mV for 15 seconds. This is followed by application of a 5 Hz stimulus train (27×150 ms depolarizations to +40 mV). The membrane potential steps to +40 mV evoke outward (positive) ionic currents. • 6. Compound is added to each well of the Patchplate. Compounds are allowed to incubate for 5 minutes. • 7. Post-compound addition test pulse protocol is applied. Protocol: Cells are voltage clamped at a membrane holding potential of −80 mV for 15 seconds. This is followed by application of a 5 Hz stimulus train (27×150 ms depolarizations to +40 mV).
Data analysis is conducted off-line. Paired comparisons between pre-drug and post-drug additions are used to determine the inhibitory effect of each compound. % inhibition of the peak control current during the 27th depolarization to +40 mV (in the 5 Hz train) is plotted as a function of antagonist concentration. The concentrations of drug required to inhibit current by 50% (IC50) are determined by fitting of the Hill equation to the concentration response data: % of Control=100×(1+([Drug]/IC50)^p)^−1 […]

Sequence of human Kv1.5 potassium channel alpha subunit (P22460 whole entry): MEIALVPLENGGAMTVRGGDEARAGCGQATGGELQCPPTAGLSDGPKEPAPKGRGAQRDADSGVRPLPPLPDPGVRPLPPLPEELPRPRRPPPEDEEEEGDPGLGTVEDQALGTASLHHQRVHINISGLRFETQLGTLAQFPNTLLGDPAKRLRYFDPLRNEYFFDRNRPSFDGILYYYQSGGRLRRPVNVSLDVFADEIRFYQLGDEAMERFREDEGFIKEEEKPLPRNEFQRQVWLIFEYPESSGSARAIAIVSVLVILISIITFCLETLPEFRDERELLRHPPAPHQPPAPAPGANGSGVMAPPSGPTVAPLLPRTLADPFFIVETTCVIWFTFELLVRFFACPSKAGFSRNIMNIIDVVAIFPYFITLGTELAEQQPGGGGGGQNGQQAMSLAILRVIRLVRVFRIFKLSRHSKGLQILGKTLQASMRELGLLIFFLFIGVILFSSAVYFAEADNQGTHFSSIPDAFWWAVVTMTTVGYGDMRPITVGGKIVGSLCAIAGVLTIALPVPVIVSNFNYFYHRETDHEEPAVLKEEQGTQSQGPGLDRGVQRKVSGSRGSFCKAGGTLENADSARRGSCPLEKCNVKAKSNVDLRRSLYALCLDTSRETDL

Row | Kv1.5 HT-clamp % inhibition [%] | Structure (SMILES)
1 | 72 | OC(c1cccnc1-c1cc(Cl)cc(Cl)c1)C(c1cccnc1)c1cccnc1F (single isomer, unassigned) [Example 3 Isomer 1, Enantiomer B, 1-[2-(3,5-dichlorophenyl)pyridin-3-yl]-2-(2-fluoropyridin-3-yl)-2-pyridin-3-ylethanol]

same assay, conditions: CHO cells stably expressing human Kv1.5; 27th depolarization to +40 mV in 5 Hz train

Row | IC50 [nM] | Structure (SMILES)
2 | 116 | OC(c1cccnc1-c1cc(Cl)cc(Cl)c1)C(c1cccnc1)c1cccnc1 (racemic) [Example 1 Racemic, racemic 1-[2-(3,5-dichlorophenyl)pyridin-3-yl]-2,2-dipyridin-3-ylethanol]
3 | 266 | OC(c1cccnc1-c1cccc(C(F)(F)F)c1)C(c1cccnc1)c1cccnc1 (racemic) [Example 2 Racemic, racemic 2,2-dipyridin-3-yl-1-{2-[3-(trifluoromethyl)-phenyl]pyridin-3-yl}ethanol]
4 | 422 | OC(c1cccnc1-c1ccccc1Cl)C(c1cccnc1)c1cccnc1 (racemic) [Example 4 Racemic, racemic 1-[2-(2-chlorophenyl)pyridin-3-yl]-2,2-dipyridin-3-ylethanol]
5 | 77 | OC(c1cccnc1-c1cc(Cl)ccc1Cl)C(c1cccnc1)c1cccnc1 (racemic) [Example 5 Racemic, racemic 1-[2-(2,5-dichlorophenyl)pyridin-3-yl]-2,2-dipyridin-3-ylethanol]
6 | 110 | OC(c1cccnc1-c1cccc(Cl)c1Cl)C(c1cccnc1)c1cccnc1 (racemic) [Example 6 Racemic, racemic 1-[2-(2,3-dichlorophenyl)pyridin-3-yl]-2,2-dipyridin-3-ylethanol]
7 | 290 | OC(c1cccnc1-c1cccc(C(F)(F)F)c1)C(c1cccnc1)c1cccnc1 (single isomer, unassigned) [Example 2 Enantiomer A, 2,2-dipyridin-3-yl-1-{2-[3-(trifluoromethyl)phenyl]pyridin-3-yl}ethanol]
8 | 8220 | OC(c1cccnc1-c1cccc(C(F)(F)F)c1)C(c1cccnc1)c1cccnc1 (single isomer, unassigned) [Example 2 Enantiomer B, 2,2-dipyridin-3-yl-1-{2-[3-(trifluoromethyl)phenyl]pyridin-3-yl}ethanol]
9 | 96 | OC(c1cccnc1-c1cc(Cl)cc(Cl)c1)C(c1cccnc1)c1cccnc1F (single isomer, unassigned) [Example 3 Isomer 1, Enantiomer A, 1-[2-(3,5-dichlorophenyl)pyridin-3-yl]-2-(2-fluoropyridin-3-yl)-2-pyridin-3-ylethanol]
10 | 154 | OC(c1cccnc1-c1cc(Cl)cc(Cl)c1)C(c1cccnc1)c1cccnc1F (single isomer, unassigned) [Example 3 Isomer 2, Enantiomer A, 1-[2-(3,5-dichlorophenyl)pyridin-3-yl]-2-(2-fluoropyridin-3-yl)-2-pyridin-3-ylethanol]
11 | 171 | OC(c1cccnc1-c1ccccc1Cl)C(c1cccnc1)c1cccnc1 (single isomer, unassigned) [Example 4 Enantiomer A, 1-[2-(2-chlorophenyl)pyridin-3-yl]-2,2-dipyridin-3-ylethanol]
12 | 25000 | OC(c1cccnc1-c1ccccc1Cl)C(c1cccnc1)c1cccnc1 (single isomer, unassigned) [Example 4 Enantiomer B, 1-[2-(2-chlorophenyl)pyridin-3-yl]-2,2-dipyridin-3-ylethanol]
13 | 3200 | OC(c1cccnc1-c1cc(Cl)ccc1Cl)C(c1cccnc1)c1cccnc1 (single isomer, unassigned) [Example 5 Enantiomer A, 1-[2-(2,5-dichlorophenyl)pyridin-3-yl]-2,2-dipyridin-3-ylethanol]
14 | 75 | OC(c1cccnc1-c1cc(Cl)ccc1Cl)C(c1cccnc1)c1cccnc1 (single isomer, unassigned) [Example 5 Enantiomer B, 1-[2-(2,5-dichlorophenyl)pyridin-3-yl]-2,2-dipyridin-3-ylethanol]
15 | 5210 | OC(c1cccnc1-c1cccc(Cl)c1Cl)C(c1cccnc1)c1cccnc1 (single isomer, unassigned) [Example 6 Enantiomer A, 1-[2-(2,3-dichlorophenyl)pyridin-3-yl]-2,2-dipyridin-3-ylethanol]
16 | 236 | OC(c1cccnc1-c1cccc(Cl)c1Cl)C(c1cccnc1)c1cccnc1 (single isomer, unassigned) [Example 6 Enantiomer B, 1-[2-(2,3-dichlorophenyl)pyridin-3-yl]-2,2-dipyridin-3-ylethanol]
17 | 90 | O[C@@H](c1cccnc1-c1cc(Cl)cc(Cl)c1)C(c1cccnc1)c1cccnc1 [(R)-1-[2-(3,5-dichlorophenyl)pyridin-3-yl]-2,2-dipyridin-3-ylethanol]
18 | 2920 | O[C@H](c1cccnc1-c1cc(Cl)cc(Cl)c1)C(c1cccnc1)c1cccnc1 [(S)-1-[2-(3,5-dichlorophenyl)pyridin-3-yl]-2,2-dipyridin-3-ylethanol]

same assay, conditions: at 10000 nM

Row | inhibition at 10 µM [%] | Structure (SMILES)
19 | 89 | OC(c1cccnc1-c1cc(Cl)cc(Cl)c1)C(c1cccnc1)c1cccnc1F (single isomer, unassigned) [Example 3 Isomer 2, Enantiomer B, 1-[2-(3,5-dichlorophenyl)pyridin-3-yl]-2-(2-fluoropyridin-3-yl)-2-pyridin-3-ylethanol]

— US7973059B2, “Potassium channel inhibitors” (Merck Sharp & Dohme Corp., priority 2005, dated 2011)
